Source: patent publication US20070073056A1, “4-Substituted Pyrazoline Compounds, their Preparation and Use as Medicaments” (LABORATORIOS DEL DR. ESTEVE, S.A., priority 2005, published 2007)
Counter-ions that a name gives are not always drawn. Like-named read-outs stand apart in the source and are kept apart here.

Assays:
CB1-receptor [1] = target: CB1-receptor (UniProt P20272); experiment: binding of the pyrazoline compounds to CB1-receptors (Pharmacological Methods, Part I); set-up: IC50; species or system human or rat
Procedure: (§1) I. In-vitro Determination of Affinity to CB1/CB2-Receptors
(§2) The in-vitro determination of the affinity of the inventive 4-substituted pyrazoline compounds to CB1/CB2-Rezeptors is carried out as described in the publication of Ruth A. Ross, Heather C. Brockie et al., “Agonist-inverse agonist characterisation at CB1 and CB2 cannabinoid receptors of L-759633, L759656 and AM630”, British Journal of Pharmacology, 126, 665-672, (1999), whereby the transfected human CB1 and CB2 receptors of Receptor Biology, Inc. are used. The radioligand used for both receptors is [^3H]-CP55940. The respective parts of the description is hereby incorporated by reference and forms part of the present disclosure.
(§3) Rat Cerebellum CB1 Binding
(§4) Binding affinity to CB1 receptor was evaluated according to a modification of the method described by Govaerts et al., Eur J Pharmac Sci 23, 233-243 (2004). The respective parts of the description is hereby incorporated by reference and forms part of the present disclosure.
(§5) Briefly, cerebellum from male wistar rats (250-300 g) were carefully dissected on ice and homogenates were prepared with Potter-Helveheim in a cold 50 mM Tris-HCl solution containing 5 mM MgCl2, 1 mM EDTA and 0.25 M sucrose, pH 7.4. The suspension was centrifuged at […] for 5 minutes. The supernatants were collected and centrifuged 50,000×g for 15 minutes. The resulting pellets were then resuspended in Tris-HCl buffer without sucrose, homogenized and incubated for 15 min at 37° C. in an orbital shaker bath and centrifuged again at 50,000×g for 15 min. Pellets were weighted, resuspended in Tris-HCl buffer without sucrose, homogenized with Ultraturrax at 13,500 rpm for 3×5 seconds and alicuoted in 0.9 ml volumes in Eppendorf tubes. Alicuotes were centrifuged at 20,800×g for 5 minutes, supernatants discarded and pellets were frozen at −80° C. until use. Total protein concentration was determined using the Bio-Rad Lowry method based kit. Competitive binding experiments were performed in presence of 1 nM [^3H]-CP 55,940 in siliconized glass tubes containing 100 μg protein/tube resuspended in 1 ml final volume of 50 mM Tris-HCl, 5 mM MgCl2, 1 mM EDTA, 0.5% (w/v) bovine serum albumin, pH 7.4. Compounds were present at various concentrations and the non specific binding was determined in the presence of 10 μM HU-210. After 1 hour incubation at 30° C., the suspension was rapidly filtered through 0.5% PEI pre-treated GF/B fiber filters on a 96-well harvester and washed 3 times with 3 ml ice-cold binding buffer without bovine serum albumin. Radioactivity on filters was measured with Wallac Winspectral 1414 counter by liquid scintillation in 6 ml Ecoscint H (National Diagnostics, U.K.). Assays were made in triplicates.
(§6) Binding data were analyzed by non-linear regression with the software GraphPad Prism Version 3.03.
(§7) The binding of the pyrazoline compounds of general formula I to CB1-receptors was determined according to the method described in the section Pharmacological Methods, Part I.

CB1-receptor [2] = target: CB1-receptor (UniProt P20272); experiment: as above; set-up: other: 10^−7 M; other: 10^−8 M; species or system human or rat
Procedure: as §1, §2, §3, §4, §5, §6, §7

[3] = radioligand [3H]-CP55940, read-out: IC50

Structure (SMILES)	IC50 (CB1-receptor [1]; [3]) [nM]	Inhibition (CB1-receptor [2]; 10^−7 M) [%]	Inhibition (CB1-receptor [2]; 10^−8 M, in %)	IC50 (CB1-receptor [1]; radioligand [3H]-CP55940) [nM]
C[C@H]1C(C(=O)NN2CCCCCC2)=NN(c2ccc(Cl)cc2Cl)[C@H]1c1ccc(Br)cc1.Cl (relative stereo) [Example 207, cis-N-(azepan-1-yl)-5-(4-bromophenyl)-1-(2,4-dichlorophenyl)-4-methyl-4,5-dihydro-1H-pyrazole-3-carboxamide hydrochloride]	71	73	48.3	–
CC1Cc2ccccc2N1NC(=O)C1=NN(c2ccc(Cl)cc2Cl)[C@@H](c2ccc(Cl)cc2)[C@H]1C (relative stereo) [Example 113, cis-5-(4-chlorophenyl)-1-(2,4-dichlorophenyl)-4-methyl-N-(2-methylindolin-1-yl)-4,5-dihydro-1H-pyrazole-3-carboxamide]	128	55.5	24.7	–
CC1CCCC(C)N1NC(=O)C1=NN(c2ccc(Cl)cc2Cl)[C@H](c2ccc(Cl)cc2)[C@@H]1C (relative stereo) [Example 103, cis-5-(4-chlorophenyl)-1-(2,4-dichlorophenyl)-N-(2,6-dimethylpiperidin-1-yl)-4-methyl-4,5-dihydro-1H-pyrazole-3-carboxamide]	60.6	55.3	19.5	–
C[C@@H]1C(C(=O)NN2CCCCC2)=NN(c2ccc(Cl)cc2Cl)[C@@H]1c1ccc(Br)cc1.Cl (relative stereo) [Example 418, cis-5-(4-bromophenyl)-1-(2,4-dichlorophenyl)-4-methyl-N-(piperidin-1-yl)-4,5-dihydro-1H-pyrazole-3-carboxamide hydrochloride]	36	62.6	19.9	–
COc1ccc([C@@H]2[C@H](C)C(C(=O)NN3CCCCC3)=NN2c2ccc(Cl)cc2Cl)cc1 (relative stereo) [Example 410, cis-1-(2,4-dichlorophenyl)-5-(4-methoxyphenyl)-4-methyl-N-(piperidin-1-yl)-4,5-dihydro-1H-pyrazole-3-carboxamide]	82	58.1	42.4	–
C[C@H]1C(C(=S)NN2CCCCC2)=NN(c2ccc(Cl)cc2Cl)[C@H]1c1ccc(Cl)cc1 (relative stereo) [Example 379, cis-5-(4-chlorophenyl)-1-(2,4-dichlorophenyl)-4-methyl-N-(piperidin-1-yl)-4,5-dihydro-1H-pyrazole-3-carbothioamide hydrochloride]	112	74.5	27.0	–
COc1ccc([C@@H]2[C@H](C)C(C(=O)NN3CCc4ccccc43)=NN2c2ccc(Cl)cc2Cl)cc1 (relative stereo) [Example 279, cis-1-(2,4-dichlorophenyl)-N-(indolin-1-yl)-5-(4-methoxyphenyl)-4-methyl-4,5-dihydro-1H-pyrazole-3-carboxamide]	19	62.4	14.7	–
COc1ccc([C@H]2[C@@H](C)C(C(=O)NN3CC4CCCC4C3)=NN2c2ccc(Cl)cc2Cl)cc1.Cl (relative stereo) [Example 277, cis-1-(2,4-dichlorophenyl)-N-(hexahydrocyclopenta[c]pyrrol-2(1H)-yl)-5-(4-methoxyphenyl)-4-methyl-4,5-dihydro-1H-pyrazole-3-carboxamide hydrochloride]	20	61.6	17.9	–
COc1ccc([C@H]2[C@@H](C)C(C(=O)NC3CCCCCC3)=NN2c2ccc(Cl)cc2Cl)cc1 (relative stereo) [Example 275, cis-N-cycloheptyl-1-(2,4-dichlorophenyl)-5-(4-methoxyphenyl)-4-methyl-4,5-dihydro-1H-pyrazole-3-carboxamide]	–	69.1	26.1	66
C[C@H]1C(C(=O)NN2CC3CCCC3C2)=NN(c2ccc(Cl)cc2Cl)[C@H]1c1ccc(Cl)cc1 (relative stereo) [Example 108, cis-5-(4-Chlorophenyl)-1-(2,4-dichlorophenyl)-4-methyl-4,5-dihydro-1H-pyrazole-3-carboxylic acid (hexahydrocyclopenta[c]pyrrol-2-yl)-amide hydrochloride]	31.6	–	–	–
CC1CCN(NC(=O)C2=NN(c3ccc(Cl)cc3Cl)[C@@H](c3ccc(Cl)cc3)[C@H]2C)CC1 (relative stereo) [Example 9, cis-5-(4-Chloro-phenyl)-1-(2,4-dichloro-phenyl)-4-methyl-4,5-dihydro-1H-pyrazole-3-carboxylic acid (4-methyl-piperidin-1-yl)-amide]	77.3	–	–	–
C[C@@H]1C(C(=O)NN2CCCCC2)=NN(c2ccc(Cl)cc2Cl)[C@H]1c1ccc(Cl)s1 (relative stereo) [Example 426, trans-5-(5-chlorothiophen-2-yl)-1-(2,4-dichlorophenyl)-4-methyl-N-(piperidin-1-yl)-4,5-dihydro-1H-pyrazole-3-carboxamide hydrochloride]	280	–	–	–

Further lines, with some results ahead:

IC50 (CB1-receptor [1]; [3]) [nM]	Inhibition (CB1-receptor [2]; 10^−7 M) [%]	Inhibition (CB1-receptor [2]; 10^−8 M, in %)	Structure (SMILES)	IC50 (CB1-receptor [1]; radioligand [3H]-CP55940) [nM]
30	69.8	37.2	C[C@H]1C(C(=O)NC2CCCCCC2)=NN(c2ccc(Cl)cc2Cl)[C@H]1c1ccc(Br)cc1 (relative stereo) [Example 211, cis-5-(4-bromophenyl)-N-cycloheptyl-1-(2,4-dichlorophenyl)-4-methyl-4,5-dihydro-1H-pyrazole-3-carboxamide]	–
29.7	65.7	39.3	CC1CCCCC1NC(=O)C1=NN(c2ccc(Cl)cc2Cl)[C@H](c2ccc(Cl)cc2)[C@@H]1C (relative stereo) [Example 424, cis-5-(4-chlorophenyl)-1-(2,4-dichlorophenyl)-4-methyl-N-(2-methylcyclohexyl)-4,5-dihydro-1H-pyrazole-3-carboxamide]	–
31.9	90.8	39.9	C[C@H]1C(C(=O)NC2CCCCCC2)=NN(c2ccc(Cl)cc2Cl)[C@H]1c1ccc(Cl)cc1 (relative stereo) [Example 123, cis-5-(4-chlorophenyl)-N-cycloheptyl-1-(2,4-dichlorophenyl)-4-methyl-4,5-dihydro-1H-pyrazole-3-carboxamide]	–
69	72.3	11.6	C[C@@H]1C(C(=O)N[C@H]2CCCC[C@@H]2O)=NN(c2ccc(Cl)cc2Cl)[C@@H]1c1ccc(Cl)cc1 (single isomer, unassigned) [Example 129]	–
54.3	57.1	27.8	C[C@@H]1C(C(=O)NN2CCCCC2)=NN(c2ccc(Cl)cc2Cl)[C@@H]1c1ccc(Cl)cc1 (single isomer, unassigned) [Example 419, (−)-cis-5-(4-chlorophenyl)-1-(2,4-dichlorophenyl)-4-methyl-N-(piperidin-1-yl)-4,5-dihydro-1H-pyrazole-3-carboxamide]	–
45.5	66.7	33.1	CC1CCCC(NC(=O)C2=NN(c3ccc(Cl)cc3Cl)[C@H](c3ccc(Cl)cc3)[C@@H]2C)C1 (relative stereo) [Example 423, cis-5-(4-chlorophenyl)-1-(2,4-dichlorophenyl)-4-methyl-N-(3-methylcyclohexyl)-4,5-dihydro-1H-pyrazole-3-carboxamide]	–
112	50.5	23.2	C[C@H]1C(C(=O)NC2CCCCCC2)=NN(c2ccc(Cl)cc2Cl)[C@H]1c1ccc(F)cc1 (relative stereo) [Example 231, cis-N-cycloheptyl-1-(2,4-dichlorophenyl)-5-(4-fluorophenyl)-4-methyl-4,5-dihydro-1H-pyrazole-3-carboxamide]	–
7.9	80	65	C[C@H]1C(C(=O)NN2CCCCCC2)=NN(c2ccc(Cl)cc2Cl)[C@H]1c1ccc(Cl)cc1.Cl (relative stereo) [Example 96, cis-5-(4-Chlorophenyl)-1-(2,4-dichlorophenyl)-4-methyl-4,5-dihydro-1H-pyrazole-3-carboxylic acid azepan-1-ylamide hydrochloride]	–
